Reference: patent US11053204B2, “Pyrimidinyloxy benzene derivatives as herbicides” (FMC Corporation, priority 2015, dated 2021)

Columns and labels:
Experiment in all cases: Test C postemergence, plant response rating
Assay type in all cases: in vivo
kochia (Kochia scoparia) = details: Bassia scoparia, post-emergence
Procedure, shortened: (§1)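 Greenhouse plants rated visually against untreated controls 13–15 d after treatment, scale 0 = no effect to 100 = complete control. Postemergence sprays went onto potted plants 2–18 cm tall (1–4 leaves); preemergence sprays onto soil freshly sown in loam–sand or silt loam, chemicals formulated in non-phytotoxic solvent with surfactant.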

[1] = tested on: chickweed (common chickweed, Stellaria media); details: Stellaria media, post-emergence
Procedure, shortened: as §1

[2] = tested on: oat, wild (wild oat Avena fatua); details: Avena fatua, post-emergence
Procedure, shortened: as §1

[3] = tested on: galium (catchweed bedstraw, Galium aparine); details: Galium, post-emergence
Procedure, shortened: as §1

[4] = tested on: ragweed (common ragweed, Ambrosia elatior); details: Ambrosia artemisiifolia, post-emergence
Procedure, shortened: as §1

[5] = tested on: nutsedge, yellow (yellow nutsedge, Cyperus esculentus); details: Cyperus, post-emergence
Procedure, shortened: as §1

[6] = tested on: velvetleaf (Abutilon theophrasti); details: Abutilon theophrasti, post-emergence
Procedure, shortened: as §1

[7] = tested on: oilseed rape (Brassica napus); details: Brassica napus, post-emergence
Procedure, shortened: as §1

[8] = tested on: blackgrass (Alopecurus myosuroides); details: Alopecurus myosuroides, post-emergence
Procedure, shortened: as §1

[9] = tested on: foxtail, giant (giant foxtail, Setaria faberii); details: Setaria faberi, post-emergence
Procedure, shortened: as §1

[10] = tested on: morningglory (Ipomoea coccinea); details: Ipomoea, post-emergence
Procedure, shortened: as §1

[11] = tested on: lambsquarters (Chenopodium album); details: Chenopodium album, post-emergence
Procedure, shortened: as §1

[12] = tested on: wheat (winter wheat, Triticum aestivum); details: Triticum aestivum, post-emergence
Procedure, shortened: as §1

corn (Zea mays) = details: Zea mays, post-emergence
Procedure, shortened: as §1

soybean (Glycine max) = details: Glycine max, post-emergence
Procedure, shortened: as §1

## CCCOC(=O)c1c(Br)cccc1Oc1ncc(Cl)cn1 [Compound 13, propyl 2-bromo-6-[(5-chloro-2-pyrimidinyl)oxy]benzoate]
Kochia (Kochia scoparia); 4 g ai/ha, scale of 0 to 100
  pest or weed control at 4 g/ha: 0%
Kochia (Kochia scoparia); 8 g ai/ha, scale of 0 to 100
  pest or weed control at 8 g/ha: 5%
Kochia (Kochia scoparia); 16 g ai/ha, scale 0 to 100
  pest or weed control at 16 g/ha: 30%
Kochia (Kochia scoparia); 31 g ai/ha, scale 0 to 100
  pest or weed control at 31 g/ha: 30%
[1]; 4 g ai/ha, scale of 0 to 100
  pest or weed control at 4 g/ha: 5%
[1]; 8 g ai/ha, scale of 0 to 100
  pest or weed control at 8 g/ha: 5%
[1]; 16 g ai/ha, scale 0 to 100
  pest or weed control at 16 g/ha: 40%
[1]; 31 g ai/ha, scale 0 to 100
  pest or weed control at 31 g/ha: 70%
[2]; 4 g ai/ha, scale of 0 to 100
  pest or weed control at 4 g/ha: 0%
[2]; 8 g ai/ha, scale of 0 to 100
  pest or weed control at 8 g/ha: 0%
[2]; 16 g ai/ha, scale 0 to 100
  pest or weed control at 16 g/ha: 0%
[2]; 31 g ai/ha, scale 0 to 100
  pest or weed control at 31 g/ha: 5%
[3]; 4 g ai/ha, scale of 0 to 100
  pest or weed control at 4 g/ha: 10%
[3]; 8 g ai/ha, scale of 0 to 100
  pest or weed control at 8 g/ha: 5%
[3]; 16 g ai/ha, scale 0 to 100
  pest or weed control at 16 g/ha: 65%
[3]; 31 g ai/ha, scale 0 to 100
  pest or weed control at 31 g/ha: 50%
[4]; 4 g ai/ha, scale of 0 to 100
  pest or weed control at 4 g/ha: 5%
[4]; 8 g ai/ha, scale of 0 to 100
  pest or weed control at 8 g/ha: 5%
[4]; 16 g ai/ha, scale 0 to 100
  pest or weed control at 16 g/ha: 5%
[4]; 31 g ai/ha, scale 0 to 100
  pest or weed control at 31 g/ha: 5%
[5]; 4 g ai/ha, scale of 0 to 100
  pest or weed control at 4 g/ha: 0%
[5]; 8 g ai/ha, scale of 0 to 100
  pest or weed control at 8 g/ha: 0%
[5]; 16 g ai/ha, scale 0 to 100
  pest or weed control at 16 g/ha: 5%
[5]; 31 g ai/ha, scale 0 to 100
  pest or weed control at 31 g/ha: 5%
[6]; 4 g ai/ha, scale of 0 to 100
  pest or weed control at 4 g/ha: 15%
[6]; 8 g ai/ha, scale of 0 to 100
  pest or weed control at 8 g/ha: 15%
[6]; 16 g ai/ha, scale 0 to 100
  pest or weed control at 16 g/ha: 20%
[6]; 31 g ai/ha, scale 0 to 100
  pest or weed control at 31 g/ha: 25%
[7]; 4 g ai/ha, scale of 0 to 100
  plant injury at 4 g/ha: 0%
[7]; 8 g ai/ha, scale of 0 to 100
  plant injury at 8 g/ha: 0%
[7]; 16 g ai/ha, scale 0 to 100
  plant injury at 16 g/ha: 0%
[7]; 31 g ai/ha, scale 0 to 100
  plant injury at 31 g/ha: 35%
[8]; 4 g ai/ha, scale of 0 to 100
  pest or weed control at 4 g/ha: 0%
[8]; 8 g ai/ha, scale of 0 to 100
  pest or weed control at 8 g/ha: 0%
[8]; 16 g ai/ha, scale 0 to 100
  pest or weed control at 16 g/ha: 0%
[8]; 31 g ai/ha, scale 0 to 100
  pest or weed control at 31 g/ha: 5%
[9]; 4 g ai/ha, scale of 0 to 100
  pest or weed control at 4 g/ha: 5%
[9]; 8 g ai/ha, scale of 0 to 100
  pest or weed control at 8 g/ha: 5%
[9]; 16 g ai/ha, scale 0 to 100
  pest or weed control at 16 g/ha: 10%
[9]; 31 g ai/ha, scale 0 to 100
  pest or weed control at 31 g/ha: 25%
[10]; 4 g ai/ha, scale of 0 to 100
  pest or weed control at 4 g/ha: 5%
[10]; 8 g ai/ha, scale of 0 to 100
  pest or weed control at 8 g/ha: 5%
[10]; 16 g ai/ha, scale 0 to 100
  pest or weed control at 16 g/ha: 20%
[10]; 31 g ai/ha, scale 0 to 100
  pest or weed control at 31 g/ha: 30%
[11]; 4 g ai/ha, scale of 0 to 100
  pest or weed control at 4 g/ha: 30%
[11]; 8 g ai/ha, scale of 0 to 100
  pest or weed control at 8 g/ha: 60%
[11]; 16 g ai/ha, scale 0 to 100
  pest or weed control at 16 g/ha: 50%
[11]; 31 g ai/ha, scale 0 to 100
  pest or weed control at 31 g/ha: 55%
[12]; 4 g ai/ha, scale of 0 to 100
  plant injury at 4 g/ha: 0%
[12]; 8 g ai/ha, scale of 0 to 100
  plant injury at 8 g/ha: 0%
[12]; 16 g ai/ha, scale 0 to 100
  plant injury at 16 g/ha: 0%
[12]; 31 g ai/ha, scale 0 to 100
  plant injury at 31 g/ha: 0%
Corn (Zea mays); 4 g ai/ha, scale of 0 to 100
  Corn plant response rating (crop injury, 0 = no effect, 100 = complete kill) at 4 g/ha: 5%
Corn (Zea mays); 8 g ai/ha, scale of 0 to 100
  Corn plant response rating (crop injury, 0 = no effect, 100 = complete kill) at 8 g/ha: 5%
Corn (Zea mays); 16 g ai/ha, scale 0 to 100
  Corn plant response rating (crop injury, 0 = no effect, 100 = complete kill) at 16 g/ha: 10%
Corn (Zea mays); 31 g ai/ha, scale 0 to 100
  Corn plant response rating (crop injury, 0 = no effect, 100 = complete kill) at 31 g/ha: 5%
Soybean (Glycine max); 4 g ai/ha, scale of 0 to 100
  plant injury at 4 g/ha: 15%
Soybean (Glycine max); 8 g ai/ha, scale of 0 to 100
  plant injury at 8 g/ha: 20%
Soybean (Glycine max); 16 g ai/ha, scale 0 to 100
  plant injury at 16 g/ha: 30%
Soybean (Glycine max); 31 g ai/ha, scale 0 to 100
  plant injury at 31 g/ha: 35%
